Test results published in patent US10590082B2, “N-(5-((aryl or heteroaryl)methyloxy)pentyl)-substituted iminosugars as inhibitors of glucosylceramide synthase” (Academisch Medisch Centrum, priority 2014, dated 2020).
Where two headings read alike, the source gives them in different places.

Tests used:
[1] = biological target: T1, glucosylceramide synthase (GCS) (Mus musculus, UniProt O88693); assay: GCS activity in living macrophage  cells (C6-NBD lipid, TLC readout); assay type: cell-based
T1 construct: IC50 values for GCS activity were measured using living cells; endogenous in cells
T1 sequence (O88693 1-394): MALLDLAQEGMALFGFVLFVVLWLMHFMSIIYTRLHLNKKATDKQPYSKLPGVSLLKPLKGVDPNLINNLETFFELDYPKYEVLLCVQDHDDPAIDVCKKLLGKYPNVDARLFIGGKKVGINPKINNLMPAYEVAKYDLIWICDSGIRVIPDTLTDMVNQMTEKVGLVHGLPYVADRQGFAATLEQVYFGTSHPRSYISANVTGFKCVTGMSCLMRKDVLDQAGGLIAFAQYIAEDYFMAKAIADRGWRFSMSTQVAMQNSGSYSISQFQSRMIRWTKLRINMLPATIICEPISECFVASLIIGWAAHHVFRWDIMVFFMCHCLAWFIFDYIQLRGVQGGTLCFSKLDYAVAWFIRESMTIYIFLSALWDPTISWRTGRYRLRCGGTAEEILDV

[2] = biological target: T2, GBA1 (Homo sapiens, UniProt P04062, R534H); assay: GBA1 activity, recombinant human enzyme (Cerezyme), 4-MU-β-glucoside substrate; assay type: biochemical;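 note: enzyme activity read out as fluorescence of the 4-MU released from the substrate, measured on a fluorimeter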
T2 construct: purchased Sanofi (Cerezyme)
T2 sequence (P04062 40-536 R534H): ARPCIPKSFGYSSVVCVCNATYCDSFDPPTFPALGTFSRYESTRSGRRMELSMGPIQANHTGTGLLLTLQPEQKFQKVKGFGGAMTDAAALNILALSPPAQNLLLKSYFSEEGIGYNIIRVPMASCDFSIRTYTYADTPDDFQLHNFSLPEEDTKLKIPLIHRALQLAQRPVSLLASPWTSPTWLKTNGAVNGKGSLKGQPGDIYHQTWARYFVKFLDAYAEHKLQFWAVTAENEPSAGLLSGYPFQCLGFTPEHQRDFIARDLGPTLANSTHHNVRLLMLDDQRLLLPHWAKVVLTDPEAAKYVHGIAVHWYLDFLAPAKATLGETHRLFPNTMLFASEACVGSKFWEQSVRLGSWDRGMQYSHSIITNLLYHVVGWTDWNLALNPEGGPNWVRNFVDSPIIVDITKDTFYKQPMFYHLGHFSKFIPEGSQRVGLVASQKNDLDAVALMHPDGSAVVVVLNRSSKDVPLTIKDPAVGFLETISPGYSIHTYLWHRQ

[3] = biological target: T3, GBA2 (Homo sapiens, UniProt Q9HCG7); assay: GBA2 activity, membrane fraction from Gaucher spleen, 4-MU-β-glucoside substrate; assay type: biochemical;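 note: Read-out is fluorimetric quantification of released 4-MU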
T3 construct: measured using a membrane fraction obtained from Gaucher spleen; from tissue; host or cells: membrane fraction of Gaucher spleen, pre-treated with conduritol B-epoxide
T3 sequence (Q9HCG7 1-927): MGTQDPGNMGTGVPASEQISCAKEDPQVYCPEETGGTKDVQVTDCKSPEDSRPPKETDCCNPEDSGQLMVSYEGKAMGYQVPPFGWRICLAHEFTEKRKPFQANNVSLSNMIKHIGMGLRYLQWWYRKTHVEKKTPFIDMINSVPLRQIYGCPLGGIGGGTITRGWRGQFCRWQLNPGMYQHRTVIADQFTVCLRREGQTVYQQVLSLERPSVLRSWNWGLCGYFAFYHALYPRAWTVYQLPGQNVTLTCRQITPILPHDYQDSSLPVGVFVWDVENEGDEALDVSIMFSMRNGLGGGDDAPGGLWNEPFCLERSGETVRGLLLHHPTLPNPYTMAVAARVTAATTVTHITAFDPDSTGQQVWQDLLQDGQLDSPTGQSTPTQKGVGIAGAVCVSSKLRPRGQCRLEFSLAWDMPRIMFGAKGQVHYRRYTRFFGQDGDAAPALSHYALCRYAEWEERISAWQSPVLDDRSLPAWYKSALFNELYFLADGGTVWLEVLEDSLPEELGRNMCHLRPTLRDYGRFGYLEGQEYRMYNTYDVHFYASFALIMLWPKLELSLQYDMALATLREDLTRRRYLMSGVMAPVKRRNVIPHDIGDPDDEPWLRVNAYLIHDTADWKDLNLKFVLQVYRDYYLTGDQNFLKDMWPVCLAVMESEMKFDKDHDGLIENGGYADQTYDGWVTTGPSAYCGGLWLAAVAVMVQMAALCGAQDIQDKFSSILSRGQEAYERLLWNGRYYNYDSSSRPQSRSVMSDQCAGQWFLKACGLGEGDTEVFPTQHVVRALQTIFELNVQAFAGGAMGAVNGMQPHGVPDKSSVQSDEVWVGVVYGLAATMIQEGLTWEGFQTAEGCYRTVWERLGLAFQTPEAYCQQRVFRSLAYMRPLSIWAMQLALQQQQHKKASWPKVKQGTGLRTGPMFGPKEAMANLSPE

[4] = L-ido configuration series, Example 4, read-out: GCS [nM] (IC50)
[5] = L-ido configuration series, Example 4
[6] = D-gluco configuration series, Example 3
[7] = D-gluco configuration series, Example 3, read-out: GCS [nM] (IC50)

Row | Structure (SMILES) | IC50 ([1]; read-out: GCS [nM] (IC50)) | IC50 [2] [nM] | IC50 [3, 6] [nM] | other results
1 | OC[C@@H]1[C@@H](O)[C@H](O)[C@@H](O)CN1CCCCCOCc1ccc(-c2ccccc2)c(F)c1 [Compound 7] | 25 | 200 |  | 
2 | C[C@@H](OCCCCCN1C[C@H](O)[C@@H](O)[C@H](O)[C@@H]1CO)c1ccc(-c2ccccc2)cc1 [Compound 39] |  | 10000 |  | IC50 [1, 4]: 40 nM; IC50 [3, 5]: 1 nM
3 | OC[C@@H]1[C@@H](O)[C@H](O)[C@@H](O)CN1CCCCCOCc1ccc(-c2ccnc(F)c2)cc1 [Compound 16] | 150 | 2000 | 4 | 
4 | Cc1cccc(-c2ccc(COCCCCCN3C[C@H](O)[C@@H](O)[C@H](O)[C@H]3CO)cc2)c1 [Compound 35] | 100 | 250 | 2 | 
5 | OC[C@@H]1[C@@H](O)[C@H](O)[C@@H](O)CN1CC(F)(F)CCCOCc1ccc(-c2ccccc2)cc1 [Compound 11] | 200 | 500 |  | IC50 [3]: 2 nM
6 | N#Cc1cccc(-c2ccc(COCCCCCN3C[C@H](O)[C@@H](O)[C@H](O)[C@H]3CO)cc2)c1 [Compound 29] |  | 700 | 2 | IC50 [1, 7]: 50 nM
7 | OC[C@@H]1[C@@H](O)[C@H](O)[C@@H](O)CN1CCCCCOCc1ccc(-c2ccccc2)cc1F [Compound 6] | 25 | 250 |  | 
8 | OC[C@@H]1[C@@H](O)[C@H](O)[C@@H](O)CN1CCCCCOCc1ccc(-c2ccncc2)cc1 [Compound 18] |  | 2000 | 10 | IC50 [1, 7]: 2000 nM
9 | OC[C@H]1[C@@H](O)[C@H](O)[C@@H](O)CN1CCCCCOCc1ccc(-c2ccccc2)c(C(F)(F)F)c1 [Compound 45] | 3 | 6000 |  | IC50 [3, 5]: 0.1 nM
10 | OC[C@H]1[C@@H](O)[C@H](O)[C@@H](O)CN1CCCCCOCc1cccc(-c2ccccc2)c1 [Compound 41] | 75 | 20000 |  | IC50 [3, 5]: 2 nM
11 | OC[C@H]1[C@@H](O)[C@H](O)[C@@H](O)CN1CC(F)(F)CCCOCc1ccc(-c2ccccc2)cc1 [Compound 42] |  | 500000 |  | IC50 [3, 5]: 2 nM
12 | COc1cccc(-c2ccc(COCCCCCN3C[C@H](O)[C@@H](O)[C@H](O)[C@H]3CO)cc2)c1 [Compound 32] | 150 | 2500 | 20 | 
13 | C[C@H](OCCCCCN1C[C@H](O)[C@@H](O)[C@H](O)[C@@H]1CO)c1ccc(-c2ccccc2)cc1 [Compound 38] |  | 10000 |  | IC50 [1, 4]: 30 nM; IC50 [3, 5]: 2 nM
14 | OC[C@@H]1[C@@H](O)[C@H](O)[C@@H](O)CN1CCCCCOCc1ccc(-c2ccccc2)cc1C(F)(F)F [Compound 8] | 25 | 200 | 0.12 | 
15 | OC[C@@H]1[C@@H](O)[C@H](O)[C@@H](O)CN1CCCCCOCc1ccc(-c2ccc(Cl)cc2)cc1 [Compound 24] | 25 | 500 | 2 | 
16 | COc1ccccc1-c1ccc(COCCCCCN2C[C@H](O)[C@@H](O)[C@H](O)[C@H]2CO)cc1 [Compound 31] | 50 | 600 |  | IC50 [3]: 0.7 nM
17 | C[C@H](OCCCCCN1C[C@H](O)[C@@H](O)[C@H](O)[C@H]1CO)c1ccc(-c2ccccc2)cc1 [Compound 4] |  | 10000 |  | IC50 [1, 7]: 50 nM; IC50 ([1]; read-out: inhibitory potency towards GCS, expressed as IC50): 100 nM
18 | OC[C@@H]1[C@@H](O)[C@H](O)[C@@H](O)CN1CCCCCOCc1ccc(-c2ccc(C(F)(F)F)cc2)cc1 [Compound 23] | 20 | 800 | 10 | 
19 | OC[C@@H]1[C@@H](O)[C@H](O)[C@@H](O)CN1CCCCCOCc1ccc(-c2ccc3c(c2)OCO3)cc1 [Compound 21] | 25 | 2500 |  | IC50 [3]: 10 nM
20 | C[C@@H](OCCCCCN1C[C@H](O)[C@@H](O)[C@H](O)[C@H]1CO)c1ccc(-c2ccccc2)cc1 [Compound 5] |  | 10000 |  | IC50 [1, 7]: 40 nM
21 | OC[C@@H]1[C@@H](O)[C@H](O)[C@@H](O)CN1CCCCCOCc1ccc(-c2ccccc2)c(C(F)(F)F)c1 [Compound 9] | 25 | 100 |  | 
